Entries after “also recorded” stand apart in the source; their conditions may differ.
Experiments:
[1] = tested on: eye bank eyes; assay: Dye solution instilled by injection into the anterior chamber of eye bank eyes, viewed by naked eye / operating microscope; parameters: species or system human; settings: for egress of dye from the eye into outflow vessels after injection into the anterior chamber: eye bank eyes, Indigo Carmine 0.004, 0.04, 0.4 wt. %, other ophthalmic dyes for comparison
Source text: After an incision is made into the anterior chamber of the eye, a small amount of aqueous humor is expressed and the dye solution is instilled by injection into the anterior chamber. The dye solution is typically left in place for 30 seconds, during which time it stains the anterior capsule of the lens. Excess dye solution is then expelled, usually using a viscoelastic device or flushed out with a balanced salt solution.
Dye solutions containing 0.004 wt. %, 0.04 wt. %, and 0.4 wt. % of Indigo Carmine (prepared by serial dilutions of a 0.4 wt. % Indigo Carmine solution provided by Micro-Tech (Nanjing) Co.) were instilled by injection into the anterior chamber of seven eye bank eyes following the dye solution instillation procedure detailed above.
Special imaging techniques were not required.

[2] = tested on: protein; settings: sodium salt; cited from earlier work
[3] = tested on: porcine eye; assay: Dye injected into the lenticular plain after Small Incision Lenticule Extraction (SMILE) in a porcine eye; settings: injected along the laser incision planes
Source text: FIG. 9A is an operating microscope view of a porcine eye upon which a Small Incision Lenticule Extraction procedure (SMILE) has been carried out. From this view, circular horizontal plains have been cut in the corneal stroma, a superficial smaller diameter cut and a deeper cut of larger diameter. The cuts join in the corneal periphery, thereby creating a lenticule. The arrows show the edge of these cuts.
FIG. 9B is an operating microscope view of a porcine eye upon which a Small Incision Lenticule Extraction procedure (SMILE) has been carried out. Indigo Carmine has been injected into the lenticular plain. The white arrows indicate the complete circular edge of the lenticule.
Minimally invasive corneal procedures for correcting refractive error (see, e.g., Titiyal, J. S., et al., “Learning Curve of Small Incision Lenticule Extraction: Challenges and Complications”, Cornea, 2017, 36:1377-1382) have also been developed in recent years. For example, in Small Incision Lenticule Extraction (SMILE), a lenticule of corneal stroma is created within the stroma using a laser and then removed through a small incision. Occasionally, the cuts that create the lenticule are discontinuous, making lenticule extraction difficult. […]

[4] = reduced state, fluorescent; cited from earlier work
[5] = tested on: ocular surface squamous neoplastic lesion; assay: Topical application of dye to a human eye, slit lamp view of ocular surface squamous neoplastic lesion; format: in vivo
Source text: FIG. 8 is a slit lamp view of a human eye wherein an ocular surface squamous neoplastic lesion is delineated after topical application of Indigo Carmine. A blue outline is seen around the perimeter of the white ocular surface squamous neoplastic lesion.
In certain embodiments, the dye delineates eye surface dysplasia and malignancy (ocular surface squamous neoplasia) as has been found in the gut (see, e.g., Oyama, T., “Diagnostic strategies of superficial Barrett's esophageal cancer for endoscopic submucosal dissection”, Dig. Endosc., 2013, 25 Suppl 1:7-12) (see FIG. 7)

[6] = cited from earlier work
[7] = tested on: ocular structures; settings: cited from earlier work
[8] = tested on: anterior capsule; settings: cited from earlier work
[9] = anterior chamber perfused with dye solution, sodium salt

Question: With Brilliant Blue as the molecule, how does the “egress of dye from the eye into outflow vessels after injection into the anterior chamber” value (“egress of dye” below) [1] read?
Answer: Its value is “appears to remain within the eye”.

Question: With `O=C1C(=C2Nc3ccc(S(=O)(=O)[O-])cc3C2=O)Nc2ccc(S(=O)(=O)[O-])cc21.[Na+].[Na+]` [Indigo Carmine, 5,5′-indigodisulfonic acid sodium salt] as the molecule, how does the protein binding [2] read?
Answer: The protein binding was “low protein binding; also recorded: relatively reduced”.

Question: What about the “identification of laser incision planes and lenticule edge” value [3] of the same molecule?
Answer: The value was “possible to identify and determine the extent of these incisions”.

Question: What about the absorption maximum [4] of the same molecule?
Answer: The absorption maximum was 436 nm.

Question: What about the emission maximum [4] of the same molecule?
Answer: Its emission maximum is 528 nm.

Question: And the “delineation of ocular surface squamous neoplastic lesion” value [5]?
Answer: The value was “delineated”.

Question: And the solubility in water [6]?
Answer: The solubility in water was “soluble in water”.

Question: And the “staining of the canal of Schlemm” value [1, 9]?
Answer: Its value is “heavily; also recorded: heavy staining”.

Question: What about the “staining of the trabecular meshwork” value [1, 9] of the same molecule?
Answer: The value was “lightly; also recorded: more lightly stained”.

Question: What about the “visibility of dye in the collector channels on the surface of the eye” value ([1]; at each concentration: 0.004, 0.04 and 0.4 wt. %) of the same molecule?
Answer: Its value is “visible to the naked eye of the surgeon as it appeared in the collector channels on the surface of the eye”.

Question: What about the “staining of the anterior capsule of the lens” value ([1]; capsulorhexis procedure, eye bank eye) of the same molecule?
Answer: The value was “lightly stained”.

Question: What about the “dye in the deep scleral plexus” value ([1]; conjunctiva reflected away, sodium salt) of the same molecule?
Answer: Its value is “observed in the deep scleral plexus; also recorded: deeper vessels are seen, evidence of the deep scleral plexus”.

Question: What about the “egress of dye” value ([1]; sodium salt) of the same molecule?
Answer: The value was “appeared in the fine vessels in the conjunctiva adjacent to the limbus, the aqueous veins and the conjunctival venous system; also recorded: some of the dye exiting the eye through the aqueous veins”.

Question: What about the “visibility of dye on the surface of the instilled eye” value ([1]; no special imaging) of the same molecule?
Answer: The value was “easily visible to the naked eye of the surgeon”.

Question: With `CCN(CC)c1ccc(C(=C2C=CC(=[N+](CC)CC)C=C2)c2cc(O)c(S(=O)(=O)O)cc2S(=O)(=O)O)cc1` [Patent Blue] as the molecule, how does the “egress of dye” value [1] read?
Answer: The value was “appears to remain within the eye”.

Question: Which results are given for `Cc1cc(-c2ccc(/N=N/c3c(S(=O)(=O)O)cc4cc(S(=O)(=O)O)cc(N)c4c3O)c(C)c2)ccc1/N=N/c1c(S(=O)(=O)O)cc2cc(S(=O)(=O)O)cc(N)c2c1O` [Trypan Blue]?
Answer: identifying and visualizing anterior lens capsule and trabecular meshwork [7]: effective; identifying or visualizing the canal of Schlemm [7]: not effective; lowest concentration at which staining can occur [8]: 0.0125 wt. %; staining of the trabecular meshwork ([1]; anterior chamber perfused with dye solution): particularly enhances trabecular meshwork staining; egress of dye from the eye into outflow vessels after injection into the anterior chamber [1]: appears to remain within the eye

Question: For `CC1(C)C(/C=C/C=C/C=C/C=C2\N(CCCCS(=O)(=O)O)c3ccc4ccccc4c3C2(C)C)=[N+](CCCCS(=O)(=O)[O-])c2ccc3ccccc3c21` [Indocyanine Green], which “egress of dye” value [1] is on record?
Answer: Its value is “appears to remain within the eye”.

Reference: patent publication US20220151827A1, “Ophthalmic Compositions, and Ocular Uses Thereof, of Indigo Carmine” (priority 2019, published 2022)
